# Laboratory results taken from PubChem BioAssay (NCI).
#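 Grown in 96-well plates, cells were treated for 48 hours with each compound at five concentrations. Insufficient inhibition: endpoint recorded as highest concentration tested. Here, GI50 denotes the concentration required for 50% inhibition of growth. TGI: total growth inhibition.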
# Experiments:
# Experiment in all cases: growth of human tumour cells (NCI), 48 h
# [1] = system: U251 CNS
# [2] = system: NCI/ADR-RES ovarian
# [3] = system: M14 melanoma
# [4] = system: HOP-62 NSCLC
# [5] = system: A549 NSCLC
# [6] = system: HL-60(TB) leukemia
# [7] = system: NCI-H460 lung
# [8] = system: MALME-3M melanoma
# [9] = system: HCC-2998 colon
# [10] = system: OVCAR-5 ovarian
# [11] = system: OVCAR-8 ovarian
# [12] = system: SNB-75 CNS
# [13] = system: T-47D breast
# [14] = system: MDA-MB-231 breast
# [15] = system: A498 renal
# [16] = system: K-562 leukemia
# [17] = system: MDA-MB-435
# [18] = system: EKVX NSCLC
# [19] = system: DU-145 prostate
# [20] = system: RPMI-8226 leukemia
# [21] = system: NCI-H23 lung
# [22] = system: HCT-116 colon
# [23] = system: SF-539 CNS
# [24] = system: KM12 colon
# [25] = system: SK-MEL-5 melanoma
# [26] = system: NCI-H226 lung
# [27] = system: TK-10 renal
# [28] = system: MOLT-4 leukemia
# [29] = system: UO-31 renal
# [30] = system: SNB-19 CNS
# [31] = system: SK-MEL-28 melanoma
# [32] = system: SK-MEL-2 melanoma
# [33] = system: OVCAR-3 ovarian
# [34] = system: IGROV1 ovarian
# [35] = system: HOP-92 NSCLC
# [36] = system: SR leukemia
# [37] = system: OVCAR-4 ovarian
# [38] = system: COLO 205 colon
# [39] = system: UACC-257 melanoma
# [40] = system: HCT-15 colon
# [41] = system: SW-620 colon
# [42] = system: MCF7 breast
# [43] = system: SF-295 CNS
# [44] = system: CAKI-1 renal
# [45] = system: SF-268 CNS
# [46] = system: NCI-H522 lung
# [47] = system: CCRF-CEM leukemia
# [48] = system: RXF 393 renal
# [49] = system: SN12C renal
# [50] = system: PC-3 prostate
smiles,measurement,setting,value
C#C[C@]1(O)CC[C@H]2[C@@H]3CC=C4c5sc(-c6ccc(O)c(O)c6)nc5CC[C@]4(C)[C@H]3CC[C@@]21C,GI50,[1],0.68 µM
same,TGI,[1],4.42 µM
same,GI50,[2],2.81 µM
same,TGI,[2],> 100 µM
same,GI50,[3],2.09 µM
same,TGI,[3],5.87 µM
same,GI50,[4],3.91 µM
same,TGI,[4],> 100 µM
same,GI50,[5],3.33 µM
same,TGI,[5],> 100 µM
same,GI50,[6],1.77 µM
same,TGI,[6],> 100 µM
same,GI50,[7],3.13 µM
same,TGI,[7],30.8 µM
same,GI50,[8],1.63 µM
same,TGI,[8],4.8 µM
same,GI50,[9],3.67 µM
same,TGI,[9],14.7 µM
same,GI50,[10],3.04 µM
same,TGI,[10],> 100 µM
same,GI50,[11],3.3 µM
same,TGI,[11],14.5 µM
same,GI50,[12],0.339 µM
same,TGI,[12],9.95 µM
same,GI50,[13],3.27 µM
same,TGI,[13],44.7 µM
same,GI50,[14],2.97 µM
same,TGI,[14],> 100 µM
same,GI50,[15],1.76 µM
same,TGI,[15],4.23 µM
same,GI50,[16],1.21 µM
same,TGI,[16],> 100 µM
same,GI50,[17],3.11 µM
same,TGI,[17],13.2 µM
same,GI50,[18],2.14 µM
same,TGI,[18],55 µM
same,GI50,[19],3.03 µM
same,TGI,[19],> 100 µM
same,GI50,[20],0.348 µM
same,TGI,[20],> 100 µM
same,GI50,[21],2.76 µM
same,TGI,[21],> 100 µM
same,GI50,[22],1.23 µM
same,TGI,[22],2.87 µM
same,GI50,[23],0.333 µM
same,TGI,[23],1.67 µM
same,GI50,[24],2.97 µM
same,TGI,[24],55 µM
same,GI50,[25],2.13 µM
same,TGI,[25],5.15 µM
same,GI50,[26],2.22 µM
same,TGI,[26],> 100 µM
same,GI50,[27],9.21 µM
same,TGI,[27],> 100 µM
same,GI50,[28],0.435 µM
same,TGI,[28],> 100 µM
same,GI50,[29],1.43 µM
same,TGI,[29],12.9 µM
same,GI50,[30],2.09 µM
same,TGI,[30],22.1 µM
same,GI50,[31],1.39 µM
same,TGI,[31],4.19 µM
same,GI50,[32],2.93 µM
same,TGI,[32],12 µM
same,GI50,[33],2.92 µM
same,TGI,[33],16 µM
same,GI50,[34],4.18 µM
same,TGI,[34],> 100 µM
same,GI50,[35],3.78 µM
same,TGI,[35],> 100 µM
same,GI50,[36],0.659 µM
same,TGI,[36],> 100 µM
same,GI50,[37],3.55 µM
same,TGI,[37],> 100 µM
same,GI50,[38],2.42 µM
same,TGI,[38],5.81 µM
same,GI50,[39],2 µM
same,TGI,[39],5.91 µM
same,GI50,[40],1.26 µM
same,TGI,[40],4.25 µM
same,GI50,[41],2.64 µM
same,TGI,[41],> 100 µM
same,GI50,[42],1.09 µM
same,TGI,[42],6.06 µM
same,GI50,[43],0.303 µM
same,TGI,[43],1.22 µM
same,GI50,[44],2.98 µM
same,TGI,[44],15.1 µM
same,GI50,[45],2.47 µM
same,TGI,[45],> 100 µM
same,GI50,[46],1.69 µM
same,TGI,[46],3.64 µM
same,GI50,[47],0.764 µM
same,TGI,[47],> 100 µM
same,GI50,[48],0.157 µM
same,TGI,[48],0.658 µM
same,GI50,[49],3.03 µM
same,TGI,[49],> 100 µM
same,GI50,[50],0.833 µM
same,TGI,[50],> 100 µM
